Test results published in US11091428B2 (HAPLOGEN GMBH, priority 2016, dated 2021).

Tests used:
PLA2G16 = biological target: T1, PLA2G16 (Homo sapiens, UniProt P53816); test: Enzyme activity assay for PLA2G16 (Red/Green BODIPY PC-A2 fluorescence); assay type: biochemical; details: His-tagged PLA2G16, 4 min pre-incubation, 2 nM to 50 μM; read-out: IC50 values of the compounds determined in the enzyme activity assay for PLA2G16
T1 construct: Hexa-His (N); made in house; host or cells: E. coli BL21(DE3)
T1 sequence (P53816 1-162): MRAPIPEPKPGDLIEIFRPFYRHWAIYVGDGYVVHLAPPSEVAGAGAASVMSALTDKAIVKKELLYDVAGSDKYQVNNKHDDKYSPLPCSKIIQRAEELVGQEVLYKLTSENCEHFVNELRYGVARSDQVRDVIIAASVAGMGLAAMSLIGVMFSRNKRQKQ
Procedure, shortened: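 IC50 from non-linear fits of fluorescence rise (480/530 nm, 10 min) after adding Red/Green BODIPY PC-A2 mixed with DOPC/DOPG/cholesterol liposomes. Recombinant His-tagged human enzyme, bacterially expressed, was first exposed to inhibitor (2 nM–50 μM final) for 4 min in 50 mM Tris pH 8.5, 100 mM NaCl, 5 mM glutathione.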

[1] = system: picornaviruses (CVB1, HRV-A2, HRV-A23, EV-68); test: Anti-picornavirus cytopathic effect (CPE) reduction assay on HeLa H1 cells; assay type: cell-based; details: Enterovirus B, HeLa H1, 48 h, HeLa H1 cells, 48 h, category from averaging the EC50 values from four picornaviruses (CVB1, HRV-A2, HRV-A23, EV68); read-out: EC50 values of the compounds determined in the anti-picornavirus assay
Protocol: The antiviral activity of selected compounds was tested using a cytopathic effect (CPE) reduction assay on HeLa H1 cells (ATCC CRL-1958). Briefly, cells were seeded in 96-well dishes (2×10^4 cells/well) in DMEM medium (Life technologies) supplemented with 10% FBS and PenStrep solution (100 U/mL Penicillin and 100 μg/mL streptomycin) and incubated at 37° C., 5% CO2 ovemight. The next day, cells were pre-treated with serial dilutions of the compound in DMEM medium supplemented with 2% FBS and PenStrep for 2 h at 37° C., 5% CO2. Next, cells were infected with virus (CVB1, HRV-A2, HRV-A23, EV-68) at an multiplicity of infection (MOI) which results in a complete virus-induced CPE within 2 days in control wells (infected and vehicle-treated). After 48 h, supematants were aspirated and 50 μl/well of CellTiterBlue reagent (Promega) diluted 1:5 in DMEM+2% FBS, was added to the cells. Plates were returned to the incubator and allowed to develop for 1.5 h. After that, plates were equilibrated to RT and subsequently, fluorescence was recorded (Excitation wavelength: 560 nm; emission wavelength: 590 nm) using a SpectraMax M5 multimode plate reader. Viability of cells was calculated according to the formula: V=(RFUCpd−RFUVeh/(RFUM−RFUVeh), where RFUCpd refers to infected and compound-treated cells, RFUVeh to infected and vehicle-treated cells and RFUM to uninfected and vehicle treated cells. Half-maximal effective concentrations (EC50) were calculated by non-linear regression analysis using the drc package in R (R Development. Core Team, 2005). EC50 categories as presented in Table 2 were calculated by averaging the EC50 values from four picornaviruses (CVB1, HRV-A2, HRV-A23, EV68).

CC(C)CC(OCC1CCOCC1)C(=O)C(=O)NCC1CC1 (stereo not drawn) [FP 130, N-(Cyclopropylmethyl)-5-methyl-3-[(oxan-4-yl)methoxy]-2-oxohexanamide]
IC50 (PLA2G16): < 1 µM
EC50 [1]: 1 to 10 µM

COc1ccccc1N(C=O)C(C)C(=O)C(=O)N[C@H](C)C(C)C (stereo partly drawn) [FP 107, 3-[N-(2-Methoxyphenyl)formamido]-N-[(2R)-3-methylbutan-2-yl]-2-oxobutanamide]
IC50 (PLA2G16): < 1 µM
EC50 [1]: 1 to 10 µM

O=CN(Cc1ccccc1)[C@@H](Cc1c[nH]cn1)C(=O)C(=O)NCC1CCCCC1 [FP 118, (3S)-3-(N-Benzylformamido)-N-(cyclohexylmethyl)-4-(1H-imidazol-4-yl)-2-oxobutanamide]
IC50 (PLA2G16): < 1 µM
EC50 [1]: 1 to 10 µM

O=C(NCCF)C(=O)[C@H]1CCC(=O)N1Cc1ccccc1 [FP 282, 2-[(2R)-1-Benzyl-5-oxopyrrolidin-2-yl]-N-(2-fluoroethyl)-2-oxoacetamide]
IC50 (PLA2G16): < 1 µM
EC50 [1]: < 1 µM

CC(C)NC(=O)[C@H]1C[C@H](NC(=O)C(=O)[C@H]2CCC(=O)N2Cc2ccccc2)C1 [FP 306, (1 r,3r)-3-{2-[(2R)-1-Benzyl-5-oxopyrrolidin-2-yl]-2-oxoacetamido}-N-(propan-2-yl)cyclobutane-1-carboxamide]
IC50 (PLA2G16): < 1 µM
EC50 [1]: 1 to 10 µM

O=C(NC1CCCC1)C(=O)[C@H]1CCC(=O)N1Cc1ccccc1 [FP 239, 2-[(2R)-1-Benzyl-5-oxopyrrolidin-2-yl]-N-cyclopentyl-2-oxoacetamide]
IC50 (PLA2G16): < 1 µM
EC50 [1]: < 1 µM

NC(=O)c1ccc(CN2C(=O)CCC2C(=O)C(=O)NCC2CCCCC2)cc1 (stereo not drawn) [FP 252, 4-[(2-{[(Cyclohexylmethyl)carbamoyl]carbonyl}-5-oxopyrrolidin-1-yl)methyl]benzamide]
IC50 (PLA2G16): < 1 µM
EC50 [1]: 1 to 10 µM

CC(C)[C@H]1CC(=O)N(Cc2ccccc2)[C@@H]1C(=O)C(=O)NC1CC1 (racemic) [FP 342, 2-[(2S,3R)-1-Benzyl-5-oxo-3-(propan-2-yl)pyrrolidin-2-yl]-N-cyclopropyl-2-oxoacetamide and 2-[(2R,3S)-1-benzyl-5-oxo-3-(propan-2-yl)pyrrolidin-2-yl]-N-cyclopropyl-2-oxoacetamide]
IC50 (PLA2G16): < 1 µM
EC50 [1]: < 1 µM

CCCC(NC(=O)CN(C)C)C(=O)C(=O)NCC1CCCCC1 (stereo not drawn) [FP 207, N-(Cyclohexylmethyl)-3-[2-(dimethylamino)acetamido]-2-oxohexanamide]
IC50 (PLA2G16): < 1 µM
EC50 [1]: 1 to 10 µM

COc1ccccc1N(C=O)C(CC(C)C)C(=O)C(=O)NCc1cccc(Cl)c1 (stereo not drawn) [FP 13, N-[(3-Chlorophenyl)methyl]-3-[N-(2-methoxyphenyl)formamido]-5-methyl-2-oxohexanamide]
IC50 (PLA2G16): < 1 µM
EC50 [1]: < 1 µM

CCC(NS(=O)(=O)c1ccccc1)C(=O)C(=O)NCC1CC1 (stereo not drawn) [FP 216, 3-Benzenesulfonamido-N-(cyclopropylmethyl)-2-oxopentanamide]
IC50 (PLA2G16): < 1 µM
EC50 [1]: 1 to 10 µM

CCCC(=O)N(c1ccccc1OC)C(C)C(=O)C(=O)NCc1cccc(Cl)c1 (stereo not drawn) [FP 143, N-[(3-Chlorophenyl)methyl]-3-[N-(2-methoxyphenyl)butanamido]-2-oxobutanamide]
IC50 (PLA2G16): < 1 µM
EC50 [1]: 1 to 10 µM

CC(C)[C@@H](C(=O)C(=O)NCC1CC1)N(C=O)CC(C)(C)C (single isomer, unassigned) [FP 33]
IC50 (PLA2G16): < 1 µM
EC50 [1]: 1 to 10 µM

O=C(COCC1CCCCC1)C(=O)NCC1CC1 [FP 129, 3-(Cyclohexylmethoxy)-N-(cyclopropylmethyl)-2-oxopropanamide]
IC50 (PLA2G16): < 1 µM
EC50 [1]: > 10 µM

Cc1cc(CNC(=O)C(=O)[C@H]2CCC(=O)N2Cc2ccccc2)no1 [FP 289, 2-[(2R)-1-Benzyl-5-oxopyrrolidin-2-yl]-N-[(5-methyl-1,2-oxazol-3-yl)methyl]-2-oxoacetamide]
IC50 (PLA2G16): < 1 µM
EC50 [1]: < 1 µM

CC(C)CC(C(=O)C(=O)NCC1CC1)N(C=O)CC1CCCO1 (stereo not drawn) [FP 74, N-(Cyclopropylmethyl)-5-methyl-2-oxo-3-{N[(oxolan-2-yl)methyl]formamido} hexanamide]
IC50 (PLA2G16): < 1 µM
EC50 [1]: 1 to 10 µM

O=C(NC1CN(C(=O)C2CCC2)C1)C(=O)[C@H]1CCC(=O)N1Cc1ccccc1 [FP 318, 2-[(2R)-1-Benzyl-5-oxopyrrolidin-2-yl]-N-(1-cyclobutanecarbonylazetidin-3-yl)-2-oxoacetamide]
IC50 (PLA2G16): < 1 µM
EC50 [1]: 1 to 10 µM

Cc1ccccc1C(=O)N[C@@H](C)C(=O)C(=O)NCC1CC1 (single isomer, unassigned) [FP 157]
IC50 (PLA2G16): < 1 µM
EC50 [1]: 1 to 10 µM

CC(=O)NCCCCCCCNC(=O)C(=O)C1CCC(=O)N1Cc1ccccc1 (stereo not drawn) [FP 326, 2-(1-Benzyl-5-oxopyrrolidin-2-yl)-N-(7-acetamidoheptyl)-2-oxoacetamide]
IC50 (PLA2G16): < 1 µM
EC50 [1]: 1 to 10 µM

O=C(NC12CC(C1)C2)C(=O)[C@H]1CCC(=O)N1Cc1ccccc1 [FP 291, 2-[(2R)-1-Benzyl-5-oxopyrrolidin-2-yl]-N-{bicyclo[1.1.1]pentan-1-yl}-2-oxoacetamide]
IC50 (PLA2G16): < 1 µM
EC50 [1]: < 1 µM

CC(C)C(NC(=O)c1ccccc1)C(=O)C(=O)NCC1CC1 (stereo not drawn) [FP 165, N-(Cyclopropylmethyl)-4-methyl-2-oxo-3-(phenylformamido)pentanamide]
IC50 (PLA2G16): < 1 µM
EC50 [1]: > 10 µM

CC(C(=O)C(=O)NCC1CCC1)N(C=O)Cc1ccccc1 (stereo not drawn) [FP 201, 3-(N-Benzylformamido)-N-(cyclobutylmethyl)-2-oxobutanamide]
IC50 (PLA2G16): < 1 µM
EC50 [1]: < 1 µM

O=CN(Cc1ccccc1)C(C(=O)C(=O)NCC1CC1)C1CC1 (stereo not drawn) [FP 67, 3-(N-Benzylformamido)-3-cyclopropyl-N-(cyclopropylmethyl)-2-oxopropanamide]
IC50 (PLA2G16): < 1 µM
EC50 [1]: < 1 µM

CC(C)NC(=O)C(=O)C(C)N(C=O)C1CCCCC1 (stereo not drawn) [FP 36, 3-(N-Cyclohexylformamido)-2-oxo-N-(propan-2-yl)butanamide]
IC50 (PLA2G16): < 1 µM
EC50 [1]: 1 to 10 µM

CC(NS(=O)(=O)c1ccc(Cl)cc1)C(=O)C(=O)NCC1CC1 (stereo not drawn) [FP 215, 3-(4-Chlorobenzenesulfonamido)-N-(cyclopropylmethyl)-2-oxobutanamide]
IC50 (PLA2G16): < 1 µM
EC50 [1]: 1 to 10 µM

Cc1noc(CNC(=O)C(=O)[C@H]2CCC(=O)N2Cc2ccccc2)n1 [FP 287, 2-[(2R)-1-Benzyl-5-oxopyrrolidin-2-yl]-N-[(3-methyl-1,2,4-oxadiazol-5-yl)methyl]-2-oxoacetamide]
IC50 (PLA2G16): < 1 µM
EC50 [1]: 1 to 10 µM

CCC(NC(=O)c1ccccc1)C(=O)C(=O)NC1CC1 (stereo not drawn) [FP 183, N-Cyclopropyl-2-oxo-3-(phenylformamido)pentanamide]
IC50 (PLA2G16): 1 to 10 µM
EC50 [1]: > 10 µM

CC(NS(=O)(=O)c1ccccc1Cl)C(=O)C(=O)NCC1CC1 (stereo not drawn) [FP 191, 3-(2-Chlorobenzenesulfonamido)-N-(cyclopropylmethyl)-2-oxobutanamide]
IC50 (PLA2G16): < 1 µM
EC50 [1]: 1 to 10 µM

O=C(NCCc1ccncc1)C(=O)C1CCC(=O)N1Cc1ccccc1 (stereo not drawn) [FP 226, 2-(1-Benzyl-5-oxopyrrolidin-2-yl)-2-oxo-N-[2-(pyridin-4-yl)ethyl]acetamide]
IC50 (PLA2G16): < 1 µM
EC50 [1]: 1 to 10 µM

COc1ccccc1OC(C)C(=O)C(=O)NCc1cccc(Cl)c1 (stereo not drawn) [FP 133, N-[(3-Chlorophenyl)methyl]-3-(2-methoxyphenoxy)-2-oxobutanamide]
IC50 (PLA2G16): < 1 µM
EC50 [1]: 1 to 10 µM

CC(C)CNC(=O)C(=O)C(C)NC(=O)c1ccccc1 (stereo not drawn) [FP 182, N-(2-Methylpropyl)-2-oxo-3-(phenylformamido)butanamide]
IC50 (PLA2G16): < 1 µM
EC50 [1]: > 10 µM

O=C(NCCCc1ccncc1)C(=O)C1CCC(=O)N1Cc1ccccc1 (stereo not drawn) [FP 228, 2-(1-Benzyl-5-oxopyrrolidin-2-yl)-2-oxo-N-[3-(pyridin-4-yl)propyl]acetamide]
IC50 (PLA2G16): < 1 µM
EC50 [1]: 1 to 10 µM

CCCC(C(=O)C(=O)NCC1CC1)N(C=O)CC1CCOCC1 (stereo not drawn) [FP 58, N-(Cyclopropylmethyl)-3-{N-[(oxan-4-yl)methyl]formamido}-2-oxohexanamide]
IC50 (PLA2G16): < 1 µM
EC50 [1]: 1 to 10 µM
